Experimental data as given in ChEMBL document CHEMBL5620368, “Molecular-level strategic goals and repressors in Leishmaniasis - Integrated data to accelerate target-based heterocyclic scaffolds” (Eur J Med Chem, 2023).
In brackets after ≈: the same amount, converted by molar mass.

Tests used:
Leishmania braziliensis [1] = experiment: Antileishmanial activity against Leishmania braziliensis MHOM/Br/75/M2903 amastigotes assessed as reduction in parasite growth incubated for 72 hrs by MTT assay; type: functional, organism-based; settings: MHOM/Br/75/M2903, 72 h
Leishmania braziliensis [2] = experiment: Antileishmanial activity against Leishmania braziliensis MHOM/Br/75/M2903 promastigotes assessed as reduction in parasite growth incubated for 72 hrs by MTT assay; type: functional, organism-based; settings: MHOM/Br/75/M2903, 72 h
[3] = Inhibition of recombinant Leishmania mexicana Trypanothione reductase
Leishmania amazonensis [4] = experiment: Antileishmanial activity against Leishmania amazonensis intracellular amastigotes assessed as parasite growth inhibition at 109 uM incubated for 96 hrs relative to control; type: functional; design: scale not given: the % may be the effect or the level left
Leishmania infantum [5] = experiment: Antileishmanial activity against Leishmania infantum promastigotes assessed as reduction in cell viability incubated for 24 hrs by propidium iodide staining based flow cytometry assay; type: functional, organism-based
Leishmania infantum [6] = experiment: Antiprotozoal activity against Leishmania infantum intracellular amastigotes infected in human THP-1 derived macrophage cells assessed as reduction in parasite viability measured for 72 hrs by resazurin/alamar blue fluorometric assay; type: functional, organism-based; settings: THP-1, 72 h
[7] = Cytotoxicity against mouse Peritoneal macrophages assessed as reduction in cell viability incubated for 24 hrs by MTT assay; type: toxicity, cell-based, Peritoneal macrophage
Leishmania amazonensis [8] = experiment: Antileishmanial activity against Leishmania amazonensis promastigotes assessed as parasite growth inhibition incubated for 24 hrs; type: functional, organism-based
Leishmania amazonensis [9] = experiment: Antileishmanial activity against axenic amastigote form of patient derived Leishmania amazonensis MHOM/BR/77/LTB001 assessed as parasite growth inhibition incubated for 24 hrs; type: functional, organism-based; settings: MHOM/BR/77/LTB001, 24 h
Leishmania tropica = experiment: Antileishmanial activity against Leishmania tropica promastigote assessed as inhibition of parasite growth incubated for 72 hrs by MTT assay; type: functional, organism-based
Leishmania donovani = experiment: Antileishmanial activity against Leishmania donovani promastigotes assessed as reduction in parasite growth incubated for 48 hrs by MTT assay; type: functional, organism-based

Q: With `Oc1ccc(/C=N\Nc2ccccc2)c(O)c1` as the compound, how does the IC50 (Leishmania braziliensis [1]) read?
A: 21.7 µM

Q: What about the IC50 (Leishmania braziliensis [2]) of the same compound?
A: 7.3 µM

Q: Which IC50 [3] does the source give for `O=C(NCc1ccc2ncccc2c1)c1cnn(-c2ncc3c(n2)-c2ccccc2CCC3)c1C1CC1` here?
A: 58 µM

Q: For `C=C(C)[C@@H]1CC[C@@]2(C)[C@H]1[C@H]1CC[C@@H]3[C@@]4(C)CC[C@H](O)C(C)(C)[C@@H]4[C@H](O)C[C@@]3(C)[C@]1(C)C[C@@H]2O`, which Activity (Leishmania amazonensis [4]) is on record?
A: 80%

Q: For `CC[C@@]1(O)C(=O)OCc2c1cc1n(c2=O)Cc2c-1nc1ccccc1c2/C=N/OC(C)(C)C` [GIMATECAN], which IC50 (Leishmania infantum [5]) is on record?
A: 1.73 µM

Q: What about the IC50 (Leishmania infantum [6]) of the same compound?
A: 0.1 µM

Q: Which IC50 at 24 h [7] does the source give for `CC/C=C\C/C=C\CCC/C=C/C=C/C=C\CCCC(=O)O` here?
A: 2 µM

Q: What does the source list for `CC1=CC(=O)C[C@H]2[C@H]1CC[C@@H](C)C21C[C@H](c2ccoc2)OC1=O` (stereo partly specified)?
A: IC50 (Leishmania amazonensis [8]): 6.3 µg/mL (≈ 20 µM); IC50 (Leishmania amazonensis [9]): 20 µg/mL (≈ 63.6 µM)

Q: Which IC50 (Leishmania tropica) does the source give for `C[C@@H]1O[C@@H](OC[C@H]2O[C@@H](Oc3c(-c4ccc(O)c(O)c4)oc4cc(O)cc(O)c4c3=O)[C@H](O)[C@@H](O)[C@@H]2O)[C@H](O)[C@H](O)[C@H]1O` [RUTIN] here?
A: 91.2 µg/mL (≈ 149 µM)

Q: For `CC[C@H](CC[C@@H](C)[C@H]1CC[C@H]2[C@@H]3CC=C4C[C@@H](O)CC[C@]4(C)[C@H]3CC[C@]12C)C(C)C` [BETA-SITOSTEROL], which IC50 (Leishmania donovani) is on record?
A: 17.7 µg/mL (≈ 42.7 µM)
